Measured values as given in PubChem BioAssay AID1963430 (Molecular Pharmacology Branch, DTP, NCI, 2024).
“And” between values parts separate entries of the source, which are not always exact repeats. Equal entries are not always repeated.

Tested on: 521955-158-R2-J5-PDC complex spheroid growth, % test/control
Experiment: Anticancer human tumor 521955-158-R2-J5-PDC patient-derived pancreatic carcinoma cell line growth inhibition [Asc]
Conditions: for viability, T/C: stronger effect = lower value
Method in brief: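 Tumor cells were grown as multicellular spheroids with stromal HUVEC and mesenchymal stem cells and treated singly or in combination. Concentrations fell in half-log steps from the clinical Cmax, or from 10 microM where none was known.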

[1] = curve of first compound, second compound 0.1 µM
[2] = curve of first compound, second compound 0.316 µM
[3] = curve of first compound, second compound 1 µM
[4] = curve of first compound, second compound 3.16 µM
[5] = curve of first compound, second compound 10 µM
[6] = second compound 0.1 µM, first compound 0.00949 µM
[7] = second compound 0.1 µM, first compound 0.03 µM
[8] = second compound 0.1 µM, first compound 0.0949 µM
[9] = second compound 0.1 µM, first compound 0.3 µM
[10] = second compound 0.1 µM, first compound 0.949 µM
[11] = second compound 0.1 µM, first compound 3 µM
[12] = second compound 0.316 µM, first compound 0.00949 µM
[13] = second compound 0.316 µM, first compound 0.03 µM
[14] = second compound 0.316 µM, first compound 0.0949 µM
[15] = second compound 0.316 µM, first compound 0.3 µM
[16] = second compound 0.316 µM, first compound 0.949 µM
[17] = second compound 0.316 µM, first compound 3 µM
[18] = second compound 1 µM, first compound 0.00949 µM
[19] = second compound 1 µM, first compound 0.03 µM
[20] = second compound 1 µM, first compound 0.0949 µM
[21] = second compound 1 µM, first compound 0.3 µM
[22] = second compound 1 µM, first compound 0.949 µM
[23] = second compound 1 µM, first compound 3 µM
[24] = second compound 3.16 µM, first compound 0.00949 µM
[25] = second compound 3.16 µM, first compound 0.03 µM
[26] = second compound 3.16 µM, first compound 0.0949 µM
[27] = second compound 3.16 µM, first compound 0.3 µM
[28] = second compound 3.16 µM, first compound 0.949 µM
[29] = second compound 3.16 µM, first compound 3 µM
[30] = second compound 10 µM, first compound 0.00949 µM
[31] = second compound 10 µM, first compound 0.03 µM
[32] = second compound 10 µM, first compound 0.0949 µM
[33] = second compound 10 µM, first compound 0.3 µM
[34] = second compound 10 µM, first compound 0.949 µM
[35] = second compound 10 µM, first compound 3 µM
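Note: spheroids exposed to agents for 7 days before readout.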
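Throughout, for viability, T/C: 100% = DMSO vehicle control viability.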

In the case of `CCN1CCN(Cc2ccc(Nc3ncc(F)c(-c4cc(F)c5nc(C)n(C(C)C)c5c4)n3)nc2)CC1`, the viability, T/C (compound 0.00316 µM) is reported as 70.6% and 82.3% and 87.5%, the viability, T/C (compound 0.01 µM) is reported as 72% and 65.5% and 92.3% and the viability, T/C (compound 0.0316 µM) is reported as 54.5% and 79.2% and 78.5%. The viability, T/C (compound 0.1 µM) was 66.6% and 70.4% and 70.9%, the viability, T/C (compound 0.316 µM) was 74.6% and 71.2% and 91.2% and the viability, T/C (compound 1 µM) was 103% and 98.6% and 108%. The IC50 (curve of compound) was greater than 1000 nM.
In the case of `Cc1nc(N2CCC3(CC2)COC(C)C3N)c(CO)nc1Sc1ccnc(N)c1Cl` (stereo not drawn) + Cc1c(S(C)(=O)=O)c(-c2cc(F)cc(N3CCN(c4ccc(NS(=O)(=O)c5ccc(NC(CCN6CCC(C(=O)OCCCP(=O)(O)O)CC6)CSc6ccccc6)c(S(=O)(=O)C(F)(F)F)c5)cc4)CC3)c2)c(-c2ccc(Cl)cc2)n1C(C)C, the IC50 [1] is reported as 60.8 nM, the IC50 [2] is reported as 57.7 nM and the IC50 [3] is reported as 142 nM. For the same molecule, the IC50 [4] was 392 nM, the IC50 [5] was greater than 3000 nM and the viability, T/C [6] was 52.9%. For the same molecule, the viability, T/C [7] was 55.8%, the viability, T/C [8] was 45.8% and the viability, T/C [9] was 43.2%. The viability, T/C [10] was 34.9%, the viability, T/C [11] was 36.9% and the viability, T/C [12] was 63.6%. It also gave a viability, T/C [13] of 65.8%, a viability, T/C [14] of 38.9% and a viability, T/C [15] of 32.9%. It also gave a viability, T/C [16] of 30.4%, a viability, T/C [17] of 30.5% and a viability, T/C [18] of 64.6%. It also gave a viability, T/C [19] of 69.4%, a viability, T/C [20] of 48.2% and a viability, T/C [21] of 39.4%. The viability, T/C [22] was 44.4%, the viability, T/C [23] was 29.4% and the viability, T/C [24] was 75.9%. The viability, T/C [25] was 64.7%, the viability, T/C [26] was 61.2% and the viability, T/C [27] was 50.3%. It also gave a viability, T/C [28] of 43%, a viability, T/C [29] of 48.9% and a viability, T/C [30] of 230%. For the same molecule, the viability, T/C [31] was 221%, the viability, T/C [32] was 179% and the viability, T/C [33] was 190%. The viability, T/C [34] was 179% and the viability, T/C [35] was 134%.
Work on `CCN1CCN(Cc2ccc(Nc3ncc(F)c(-c4cc(F)c5nc(C)n(C(C)C)c5c4)n3)nc2)CC1` + CCN1C(C(=O)NC23CCC(C(=O)O)(CC2)CC3)C(c2cccc(Cl)c2F)C2(C(=O)Nc3cc(Cl)ccc32)C12CCCCC2 yielded an IC50 (curve of first compound, second compound 0.03 µM) greater than 1000 nM, an IC50 (curve of first compound, second compound 0.0949 µM) greater than 1000 nM and an IC50 (curve of first compound, second compound 0.3 µM) greater than 1000 nM. It also gave an IC50 (curve of first compound, second compound 0.949 µM) greater than 1000 nM, an IC50 (curve of first compound, second compound 3 µM) greater than 1000 nM and a viability, T/C (second compound 0.03 µM, first compound 0.00316 µM) of 87.5%. The viability, T/C (second compound 0.03 µM, first compound 0.01 µM) was 88.8%, the viability, T/C (second compound 0.03 µM, first compound 0.0316 µM) was 57.3% and the viability, T/C (second compound 0.03 µM, first compound 0.1 µM) was 77.4%. The viability, T/C (second compound 0.03 µM, first compound 0.316 µM) was 72.4%, the viability, T/C (second compound 0.03 µM, first compound 1 µM) was 89.4% and the viability, T/C (second compound 0.0949 µM, first compound 0.00316 µM) was 101%. For the same molecule, the viability, T/C (second compound 0.0949 µM, first compound 0.01 µM) was 79.8%, the viability, T/C (second compound 0.0949 µM, first compound 0.0316 µM) was 62.8% and the viability, T/C (second compound 0.0949 µM, first compound 0.1 µM) was 56.3%. For the same molecule, the viability, T/C (second compound 0.0949 µM, first compound 0.316 µM) was 73.2%, the viability, T/C (second compound 0.0949 µM, first compound 1 µM) was 105% and the viability, T/C (second compound 0.3 µM, first compound 0.00316 µM) was 106%. The viability, T/C (second compound 0.3 µM, first compound 0.01 µM) was 99.1%, the viability, T/C (second compound 0.3 µM, first compound 0.0316 µM) was 65.6% and the viability, T/C (second compound 0.3 µM, first compound 0.1 µM) was 60.9%. For the same molecule, the viability, T/C (second compound 0.3 µM, first compound 0.316 µM) was 83.8%, the viability, T/C (second compound 0.3 µM, first compound 1 µM) was 110% and the viability, T/C (second compound 0.949 µM, first compound 0.00316 µM) was 119%. The viability, T/C (second compound 0.949 µM, first compound 0.01 µM) was 102%, the viability, T/C (second compound 0.949 µM, first compound 0.0316 µM) was 107% and the viability, T/C (second compound 0.949 µM, first compound 0.1 µM) was 79%. It also gave a viability, T/C (second compound 0.949 µM, first compound 0.316 µM) of 92.3%, a viability, T/C (second compound 0.949 µM, first compound 1 µM) of 98.2% and a viability, T/C (second compound 3 µM, first compound 0.00316 µM) of 142%. It also gave a viability, T/C (second compound 3 µM, first compound 0.01 µM) of 172%, a viability, T/C (second compound 3 µM, first compound 0.0316 µM) of 126% and a viability, T/C (second compound 3 µM, first compound 0.1 µM) of 89.6%. For the same molecule, the viability, T/C (second compound 3 µM, first compound 0.316 µM) was 107% and the viability, T/C (second compound 3 µM, first compound 1 µM) was 139%.
For `CCN1C(C(=O)NC23CCC(C(=O)O)(CC2)CC3)C(c2cccc(Cl)c2F)C2(C(=O)Nc3cc(Cl)ccc32)C12CCCCC2` (stereo not drawn) + Cc1c(S(C)(=O)=O)c(-c2cc(F)cc(N3CCN(c4ccc(NS(=O)(=O)c5ccc(NC(CCN6CCC(C(=O)OCCCP(=O)(O)O)CC6)CSc6ccccc6)c(S(=O)(=O)C(F)(F)F)c5)cc4)CC3)c2)c(-c2ccc(Cl)cc2)n1C(C)C, the IC50 [1] was greater than 3000 nM, the IC50 [2] was greater than 3000 nM and the IC50 [3] was greater than 3000 nM. The IC50 [4] was greater than 3000 nM, the IC50 [5] was greater than 3000 nM and the viability, T/C [6] was 70.7%. The viability, T/C [7] was 80.8%, the viability, T/C [8] was 54.6% and the viability, T/C [9] was 95%. For the same molecule, the viability, T/C [10] was 76.5%, the viability, T/C [11] was 92.6% and the viability, T/C [12] was 73.3%. For the same molecule, the viability, T/C [13] was 90.4%, the viability, T/C [14] was 61.1% and the viability, T/C [15] was 72.8%. For the same molecule, the viability, T/C [16] was 76%, the viability, T/C [17] was 89.6% and the viability, T/C [18] was 66.2%. The viability, T/C [19] was 91%, the viability, T/C [20] was 69.4% and the viability, T/C [21] was 74.1%. The viability, T/C [22] was 67.7%, the viability, T/C [23] was 64.5% and the viability, T/C [24] was 111%. The viability, T/C [25] was 91.7%, the viability, T/C [26] was 86.1% and the viability, T/C [27] was 100%. For the same molecule, the viability, T/C [28] was 77%, the viability, T/C [29] was 76.7% and the viability, T/C [30] was 151%. It also gave a viability, T/C [31] of 153%, a viability, T/C [32] of 166% and a viability, T/C [33] of 169%. It also gave a viability, T/C [34] of 107% and a viability, T/C [35] of 112%.
For `Cc1nc(N2CCC3(CC2)COC(C)C3N)c(CO)nc1Sc1ccnc(N)c1Cl` (stereo not drawn), the viability, T/C (compound 0.00949 µM) was 70.6% and 72.1% and 91.2%, the viability, T/C (compound 0.03 µM) was 68.2% and 54.1% and 87.1% and the viability, T/C (compound 0.0949 µM) was 59.4% and 48.2% and 62.4%. The viability, T/C (compound 0.3 µM) was 48.2% (2×) and 65.5%, the viability, T/C (compound 0.949 µM) was 55.2% and 53.1% and 52.7% and the viability, T/C (compound 3 µM) was 51.9% and 43.2% and 57.4%.
